Assay results reported in PubChem BioAssay (NCI).
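Test compounds were applied to cells in 96-well plates for 48 hours at 5 doses. GI50 is the concentration that inhibits growth by half. The concentration for full growth arrest is given as TGI.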

Legend:
Test in all cases: inhibition of tumour cell growth, NCI panel, 48 h
[1] = tested on: SK-MEL-5 melanoma
[2] = tested on: HT29 colon
[3] = tested on: SNB-75 CNS
[4] = tested on: PC-3 prostate
[5] = tested on: SF-295 CNS
[6] = tested on: DU-145 prostate
[7] = tested on: LOX IMVI melanoma
[8] = tested on: UACC-62 melanoma
[9] = tested on: NCI-H23 lung
[10] = tested on: KM12 colon
[11] = tested on: T-47D breast
[12] = tested on: HCC-2998 colon
[13] = tested on: SK-MEL-2 melanoma
[14] = tested on: OVCAR-4 ovarian
[15] = tested on: HCT-116 colon
[16] = tested on: MOLT-4 leukemia
[17] = tested on: K-562 leukemia
[18] = tested on: OVCAR-3 ovarian
[19] = tested on: TK-10 renal
[20] = tested on: NCI-H460 lung
[21] = tested on: U251 CNS
[22] = tested on: SK-OV-3 ovarian
[23] = tested on: OVCAR-8 ovarian
[24] = tested on: SW-620 colon
[25] = tested on: CAKI-1 renal
[26] = tested on: NCI-H226 lung
[27] = tested on: A498 renal
[28] = tested on: UACC-257 melanoma
[29] = tested on: MDA-MB-435
[30] = tested on: SN12C renal
[31] = tested on: SNB-19 CNS
[32] = tested on: SF-539 CNS
[33] = tested on: MALME-3M melanoma
[34] = tested on: 786-0 renal
[35] = tested on: BT-549 breast
[36] = tested on: HS 578T breast
[37] = tested on: M14 melanoma
[38] = tested on: CCRF-CEM leukemia
[39] = tested on: MCF7 breast
[40] = tested on: OVCAR-5 ovarian
[41] = tested on: COLO 205 colon
[42] = tested on: SR leukemia
[43] = tested on: RPMI-8226 leukemia
[44] = tested on: SK-MEL-28 melanoma
[45] = tested on: UO-31 renal
[46] = tested on: HCT-15 colon
[47] = tested on: NCI-H522 lung
[48] = tested on: MDA-MB-231 breast
[49] = tested on: ACHN renal
[50] = tested on: SF-268 CNS
[51] = tested on: NCI/ADR-RES ovarian
[52] = tested on: IGROV1 ovarian
[53] = tested on: RXF 393 renal
[54] = tested on: A549 NSCLC
[55] = tested on: HOP-92 NSCLC
[56] = tested on: EKVX NSCLC
[57] = tested on: HOP-62 NSCLC
[58] = tested on: HL-60(TB) leukemia

Compound `CCOC(=O)c1cc(-c2ccccc2)[nH]c1N/N=C/c1c(Cl)cccc1Cl` has a GI50 [1] of 0.706 µM, a TGI [1] of 14.1 µM and a GI50 [2] of 0.836 µM. For the same compound, the TGI [2] was 16.3 µM, the GI50 [3] was 1.53 µM and the TGI [3] was > 39.6 µM. It also gave a GI50 [4] of 0.502 µM, a TGI [4] of 37.5 µM and a GI50 [5] of 0.339 µM. It also gave a TGI [5] of 10.3 µM, a GI50 [6] of 1.59 µM and a TGI [6] of 11.7 µM. The GI50 [7] was 3.05 µM, the TGI [7] was > 100 µM and the GI50 [8] was 2.03 µM. The TGI [8] was > 100 µM, the GI50 [9] was 1.33 µM and the TGI [9] was 40.4 µM. The GI50 [10] was 0.584 µM, the TGI [10] was 24.3 µM and the GI50 [11] was > 21.2 µM. For the same compound, the TGI [11] was > 100 µM, the GI50 [12] was 1.01 µM and the TGI [12] was 7.48 µM. For the same compound, the GI50 [13] was 0.961 µM, the TGI [13] was 87.5 µM and the GI50 [14] was 13.4 µM. For the same compound, the TGI [14] was > 100 µM, the GI50 [15] was 0.729 µM and the TGI [15] was > 36.7 µM. It also gave a GI50 [16] of 4.24 µM, a TGI [16] of 24.3 µM and a GI50 [17] of 0.491 µM. The TGI [17] was 13.7 µM, the GI50 [18] was 0.248 µM and the TGI [18] was 1.04 µM. For the same compound, the GI50 [19] was 13.2 µM, the TGI [19] was > 87.8 µM and the GI50 [20] was 0.909 µM. For the same compound, the TGI [20] was > 61.7 µM, the GI50 [21] was 1.25 µM and the TGI [21] was > 60.4 µM. For the same compound, the GI50 [22] was 2.4 µM, the TGI [22] was > 100 µM and the GI50 [23] was 4.77 µM. The TGI [23] was > 100 µM, the GI50 [24] was 0.433 µM and the TGI [24] was > 81.2 µM. It also gave a GI50 [25] of 0.409 µM, a TGI [25] of 31.1 µM and a GI50 [26] of 1.5 µM. It also gave a TGI [26] of 12.4 µM, a GI50 [27] of 1.08 µM and a TGI [27] of 43.7 µM. For the same compound, the GI50 [28] was 49.2 µM, the TGI [28] was > 100 µM and the GI50 [29] was 0.272 µM. For the same compound, the TGI [29] was 2.83 µM, the GI50 [30] was 4.3 µM and the TGI [30] was > 100 µM. The GI50 [31] was 3.06 µM, the TGI [31] was > 60.4 µM and the GI50 [32] was 0.467 µM. For the same compound, the TGI [32] was 3.73 µM, the GI50 [33] was 3.9 µM and the TGI [33] was > 100 µM. The GI50 [34] was 1.39 µM, the TGI [34] was 49 µM and the GI50 [35] was 1.24 µM. It also gave a TGI [35] of 18.9 µM, a GI50 [36] of 0.538 µM and a TGI [36] of 37.2 µM. For the same compound, the GI50 [37] was 1.71 µM, the TGI [37] was 25.3 µM and the GI50 [38] was 2.3 µM. The TGI [38] was 13.5 µM, the GI50 [39] was 0.45 µM and the TGI [39] was > 100 µM. The GI50 [40] was 4.99 µM, the TGI [40] was 98 µM and the GI50 [41] was 2.71 µM. It also gave a TGI [41] of 15.3 µM, a GI50 [42] of 0.413 µM and a TGI [42] of 10.2 µM. The GI50 [43] was 2.11 µM, the TGI [43] was 11.3 µM and the GI50 [44] was 3.35 µM. The TGI [44] was > 75 µM, the GI50 [45] was 1.34 µM and the TGI [45] was > 100 µM. For the same compound, the GI50 [46] was 0.671 µM, the TGI [46] was > 100 µM and the GI50 [47] was 0.701 µM. The TGI [47] was > 26.2 µM, the GI50 [48] was 3.7 µM and the TGI [48] was 25.4 µM. For the same compound, the GI50 [49] was 0.874 µM, the TGI [49] was > 100 µM and the GI50 [50] was 1.14 µM. For the same compound, the TGI [50] was > 100 µM, the GI50 [51] was 0.509 µM and the TGI [51] was 14.6 µM. For the same compound, the GI50 [52] was 0.752 µM, the TGI [52] was 29.3 µM and the GI50 [53] was 0.47 µM. For the same compound, the TGI [53] was 9.51 µM, the GI50 [54] was 1.92 µM and the TGI [54] was > 100 µM. The GI50 [55] was 2.02 µM, the TGI [55] was 62.4 µM and the GI50 [56] was 5.96 µM. For the same compound, the TGI [56] was > 100 µM, the GI50 [57] was 2.37 µM and the TGI [57] was 41.4 µM. The GI50 [58] was 0.484 µM and the TGI [58] was 5.13 µM.
